Results from patent US20060276464A1, “Diarylsulfone sulfonamides and use thereof” (Wyeth, priority 2005, published 2006).
Read-outs that look alike come from different tables or passages of the source.

Molecular target: T1, SFRP-1 (Homo sapiens, UniProt Q8N474)
T1 sequence (Q8N474 32-314): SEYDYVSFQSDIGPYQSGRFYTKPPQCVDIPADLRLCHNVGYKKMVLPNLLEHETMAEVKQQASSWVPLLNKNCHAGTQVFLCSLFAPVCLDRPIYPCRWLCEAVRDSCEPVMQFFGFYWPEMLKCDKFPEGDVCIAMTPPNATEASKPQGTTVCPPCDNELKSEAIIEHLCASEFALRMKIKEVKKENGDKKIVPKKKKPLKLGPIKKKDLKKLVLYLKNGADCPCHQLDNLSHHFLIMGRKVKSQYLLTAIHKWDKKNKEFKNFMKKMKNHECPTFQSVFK
Test: Cell-based assay for in vitro measurement of SFRP-1/SARP2 antagonist activity (U2OS cells co-transfected with 16x TCF-tk-Luciferase reporter, Wnt and hSFRP-1);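 further: U2OS cells co-transfected with a TCF-tk luciferase reporter, a Wnt vector, hSFRP-1 or empty vector and CMV-βgal, luciferase luminescence read in cell lysates alongside βgal activity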
Details: U2OS

[1] = read-out: Fold Induction with SFRP-1, Conc 30 μM, with SFRP-1, fold induction over SFRP-1 control, single dose
[2] = read-out: Fold Induction without SFRP-1, Conc 30 μM, without SFRP-1, single dose
[3] = read-out: Fold Induction with SFRP-1, Conc 15 μM, with SFRP-1, fold induction over SFRP-1 control, single dose
[4] = read-out: Fold Induction without SFRP-1, Conc 15 μM, without SFRP-1, single dose

fold induction at 30 µM [1]	fold induction at 30 µM [2]	fold induction at 15 µM [3]	fold induction at 15 µM [4]	Structure (SMILES)
1.3	1	–	–	N#CCCNS(=O)(=O)c1cccc(S(=O)(=O)c2ccccc2)c1 [Example 183, N-(2-cyanoethyl)-3-(phenylsulfonyl)benzenesulfonamide]
1.2	0.9	–	–	O=S(=O)(NCCc1ccccn1)c1cccc(S(=O)(=O)c2ccccc2)c1 [Example 184, 3-(phenylsulfonyl)-N-(2-pyridin-2-ylethyl)benzenesulfonamide]
1.3	1.1	–	–	O=S(=O)(NCCCN1CCOCC1)c1cccc(S(=O)(=O)c2ccccc2)c1 [Example 185, N-(3-morpholin-4-ylpropyl)-3-(phenylsulfonyl)benzenesulfonamide]
1.3	1.3	–	–	CN1CCCC1CCNS(=O)(=O)c1cccc(S(=O)(=O)c2ccccc2)c1 (stereo not drawn) [Example 186, N-[2-(1-methylpyrrolidin-2-yl)ethyl]-3-(phenylsulfonyl)benzenesulfonamide]
1.9	1	–	–	O=S(=O)(NCCc1ccncc1)c1cccc(S(=O)(=O)c2ccccc2)c1 [Example 187, 3-(phenylsulfonyl)-N-(2-pyridin-4-ylethyl)benzenesulfonamide]
1.4	1.4	–	–	O=S(=O)(NCCN1CCCCC1)c1cccc(S(=O)(=O)c2ccccc2)c1 [Example 188, 3-(phenylsulfonyl)-N-(2-piperidin-1-ylethyl)benzenesulfonamide]
1.3	1	–	–	O=S(=O)(NCCc1c[nH]cn1)c1cccc(S(=O)(=O)c2ccccc2)c1 [Example 189, N-[2-(1H-imidazol-4-yl)ethyl]-3-(phenylsulfonyl)benzenesulfonamide]
1.2	1	–	–	CC(=O)NCCNS(=O)(=O)c1cccc(S(=O)(=O)c2ccccc2)c1 [Example 190, N-[2-({[3-(phenylsulfonyl)phenyl]sulfonyl}amino)ethyl]acetamide]
1.2	1.2	–	–	O=S(=O)(NCCN1CCOCC1)c1cccc(S(=O)(=O)c2ccccc2)c1 [Example 191, N-(2-morpholin-4-ylethyl)-3-(phenylsulfonyl)benzenesulfonamide]
1.1	1.1	–	–	O=C1CCCN1CCCNS(=O)(=O)c1cccc(S(=O)(=O)c2ccccc2)c1 [Example 192, N-[3-(2-oxopyrrolidin-1-yl)propyl]-3-(phenylsulfonyl)benzenesulfonamide]
1.2	1.3	–	–	CCN(CC)CCNS(=O)(=O)c1cccc(S(=O)(=O)c2ccccc2)c1 [Example 193, N-[2-(diethylamino)ethyl]-3-(phenylsulfonyl)benzenesulfonamide]
1.3	1.2	–	–	CN(C)CCNS(=O)(=O)c1cccc(S(=O)(=O)c2ccccc2)c1 [Example 194, N-[2-(dimethylamino)ethyl]-3-(phenylsulfonyl)benzenesulfonamide]
1.2	0.9	–	–	COCCCNS(=O)(=O)c1cccc(S(=O)(=O)c2ccccc2)c1 [Example 195, N-(3-methoxypropyl)-3-(phenylsulfonyl)benzenesulfonamide]
1.4	1.3	–	–	CN(C)CCCNS(=O)(=O)c1cccc(S(=O)(=O)c2ccccc2)c1 [Example 196, N-[3-(dimethylamino)propyl]-3-(phenylsulfonyl)benzenesulfonamide]
1.1	1.2	–	–	COCCNS(=O)(=O)c1cccc(S(=O)(=O)c2ccccc2)c1 [Example 197, N-(2-methoxyethyl)-3-(phenylsulfonyl)benzenesulfonamide]
1.1	1.3	–	–	CCN(CC)CCCNS(=O)(=O)c1cccc(S(=O)(=O)c2ccccc2)c1 [Example 198, N-[3-(diethylamino)propyl]-3-(phenylsulfonyl)benzenesulfonamide]
1.1	1	–	–	O=S(=O)(NCCCn1ccnc1)c1cccc(S(=O)(=O)c2ccccc2)c1 [Example 199, N-[3-(1H-imidazol-1-yl)propyl]-3-(phenylsulfonyl)benzenesulfonamide]
1.4	1.8	–	–	O=S(=O)(NCCCN1CCCC1)c1cccc(S(=O)(=O)c2ccccc2)c1 [Example 200, 3-(phenylsulfonyl)-N-(3-pyrrolidin-1-ylpropyl)benzenesulfonamide]

fold induction at 30 µM [1]	fold induction at 30 µM [2]	fold induction at 15 µM [3]	fold induction at 15 µM [4]	Structure (SMILES)
1.1	1.2	–	–	CN1CCN(CCCNS(=O)(=O)c2cccc(S(=O)(=O)c3ccccc3)c2)CC1 [Example 201, N-[3-(4-methylpiperazin-1-yl)propyl]-3-(phenylsulfonyl)benzenesulfonamide]
1.1	1.2	–	–	O=C(O)CCNS(=O)(=O)c1cccc(S(=O)(=O)c2ccccc2)c1 [Example 202, N-{[3-(phenylsulfonyl)phenyl]sulfonyl)-beta-alanine]
–	–	2.5	1.3	Cc1ccc(S(=O)(=O)c2ccccc2)cc1S(=O)(=O)NCCC(N)=O [Example 203, N^3-{[2-methyl-5-(phenylsulfonyl)phenyl]sulfonyl}-beta-alaninamide]
–	–	2.2	0.5	Cc1ccc(S(=O)(=O)c2ccccc2)cc1S(=O)(=O)NCCCN1CCOCC1 [Example 206, 2-methyl-N-(3-morpholin-4-ylpropyl)-5-(phenylsulfonyl)benzenesulfonamide]
–	–	2.3	1.1	Cc1ccc(S(=O)(=O)c2ccccc2)cc1S(=O)(=O)NCCC1CCCN1C (stereo not drawn) [Example 207, 2-methyl-N-[2-(1-methylpyrrolidin-2-yl)ethyl]-5-(phenylsulfonyl)benzenesulfonamide]
–	–	2.6	0.9	Cc1ccc(S(=O)(=O)c2ccccc2)cc1S(=O)(=O)NCCc1ccncc1 [Example 208, 2-methyl-5-(phenylsulfonyl)-N-(2-pyridin-4-ylethyl)benzenesulfonamide]
–	–	2.2	1.3	Cc1ccc(S(=O)(=O)c2ccccc2)cc1S(=O)(=O)NCCN1CCCCC1 [Example 209, 2-methyl-5-(phenylsulfonyl)-N-(2-piperidin-1-ylethyl)benzenesulfonamide]
–	–	2.5	1	Cc1ccc(S(=O)(=O)c2ccccc2)cc1S(=O)(=O)NCCc1c[nH]cn1 [Example 210, N-[2-(1H-imidazol-4-yl)ethyl]-2-methyl-5-(phenylsulfonyl)benzenesulfonamide]
–	–	2.3	0.7	Cc1ccc(S(=O)(=O)c2ccccc2)cc1S(=O)(=O)NCCN1CCOCC1 [Example 211, 2-methyl-N-(2-morpholin-4-ylethyl)-5-(phenylsulfonyl)benzenesulfonamide]
–	–	2	0.9	Cc1ccc(S(=O)(=O)c2ccccc2)cc1S(=O)(=O)NCCCN1CCCC1=O [Example 212, 2-methyl-N-[3-(2-oxopyrrolidin-1-yl)propyl]-5-(phenylsulfonyl)benzenesulfonamide]
–	–	1.8	1.3	CCN(CC)CCNS(=O)(=O)c1cc(S(=O)(=O)c2ccccc2)ccc1C [Example 213, N-[2-(diethylamino)ethyl]-2-methyl-5-(phenylsulfonyl)benzenesulfonamide]
–	–	3.2	1.5	Cc1ccc(S(=O)(=O)c2ccccc2)cc1S(=O)(=O)NCCN(C)C [Example 214, N-[2-(dimethylamino)ethyl]-2-methyl-5-(phenylsulfonyl)benzenesulfonamide]
–	–	2.9	1	COCCCNS(=O)(=O)c1cc(S(=O)(=O)c2ccccc2)ccc1C [Example 215, N-(3-methoxypropyl)-2-methyl-5-(phenylsulfonyl)benzenesulfonamide]
–	–	3.6	1.3	Cc1ccc(S(=O)(=O)c2ccccc2)cc1S(=O)(=O)NCCCN(C)C [Example 216, N-[3-(dimethylamino)propyl]-2-methyl-5-(phenylsulfonyl)benzenesulfonamide]
–	–	2.5	1	COCCNS(=O)(=O)c1cc(S(=O)(=O)c2ccccc2)ccc1C [Example 217, N-(2-methoxyethyl)-2-methyl-5-(phenylsulfonyl)benzenesulfonamide]
–	–	2.2	1.2	CCN(CC)CCCNS(=O)(=O)c1cc(S(=O)(=O)c2ccccc2)ccc1C [Example 218, N-[3-(diethylamino)propyl]-2-methyl-5-(phenylsulfonyl)benzenesulfonamide]
–	–	3.6	1.8	Cc1ccc(S(=O)(=O)c2ccccc2)cc1S(=O)(=O)NCCCN1CCCC1 [Example 220, 2-methyl-5-(phenylsulfonyl)-N-(3-pyrrolidin-1-ylpropyl)benzenesulfonamide]
–	–	3	1.2	Cc1ccc(S(=O)(=O)c2ccccc2)cc1S(=O)(=O)NCCCN1CCN(C)CC1 [Example 221, 2-methyl-N-[3-(4-methylpiperazin-1-yl)propyl]-5-(phenylsulfonyl)benzenesulfonamide]
